Patent US9199984B2, “Inhibition of enzymes” (CHIESI FARMACEUTICI S.p.A., priority 2012, dated 2015)
pIC50: −log10 of the molar value. Counter-ions that a name gives are not always drawn.

Target: T1, human neutrophil elastase (HNE) (Homo sapiens, UniProt P08246)
T1 construct: purchased Sigma E8140
T1 sequence (P08246 30-247 limits assumed): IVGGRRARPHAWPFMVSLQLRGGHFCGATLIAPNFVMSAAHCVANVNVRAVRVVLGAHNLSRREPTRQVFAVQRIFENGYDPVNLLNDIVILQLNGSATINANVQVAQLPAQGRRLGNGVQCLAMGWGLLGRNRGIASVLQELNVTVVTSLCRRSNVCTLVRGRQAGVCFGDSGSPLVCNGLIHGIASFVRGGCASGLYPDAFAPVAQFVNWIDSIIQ
Assay: HNE enzyme activity assay
Assay type: biochemical
Conditions: human leukocyte elastase, substrate MeOSuc-Ala-Ala-Pro-Val-AMC 100 μM, 25° C. for 30 minutes, fluorescence; read-out: HNE inhibition
Procedure: Compounds of the present invention were tested for potency in a human neutrophil elastase (HNE) enzyme activity assay.
Assays were performed in 96-well plates in a total assay volume of 100 μl. The final concentration of elastase enzyme (human leukocyte elastase, Sigma E8140) was 0.0036 units/well […]. The peptide substrate (MeOSuc-Ala-Ala-Pro-Val-AMC, Calbiochem #324740) was used at a final concentration of 100 μM. The final concentration of DMSO was 1% in the assay buffer (0.05M Tris.HCl, 0.1M NaCl, 0.1M CaCl2, 0.0005% brij-35, pH 7.5). The enzymatic reaction was started by addition of the enzyme and incubated at 25° C. for 30 minutes. After incubation, the reaction was stopped by addition of soybean trypsin inhibitor (Sigma T9003) at a final concentration of 50 μg/well. Fluorescence was measured using a Molecular Devices fluorescence plate reader using 380 nm excitation and 460 nm emission wavelengths.
A dose response to each compound was performed and the effect of compound in each experiment was expressed as a percentage inhibition of the control enzyme fluorescence. Dose response curves were plotted and compound potency (IC50) was determined. Compounds were tested in at least two separate experiments.

Row | Structure (SMILES) | pIC50
1 | Cc1c(-c2ccnn2-c2ccc(C#N)cc2)cn2nc(NC(=O)CN3CCOCC3)nc2c1-c1cccc(C(F)(F)F)c1 [Example 20, N-[6-[2-(4-Cyano-phenyl)-2H-pyrazol-3-yl]-7-methyl-8-(3-trifluoromethyl-phenyl)-[1,2,4]triazolo[1,5-a]pyridin-2-yl]-2-morpholin-4-yl-acetamide] | > 7.70
2 | Cc1c(-c2ccnn2-c2ccc(C#N)cc2)cn2nc(NCCCC(=O)N(C)CCN(C)C)nc2c1-c1cccc(C(F)(F)F)c1 [Example 60, 4-[6-[2-(4-Cyano-phenyl)-2H-pyrazol-3-yl]-7-methyl-8-(3-trifluoromethyl-phenyl)-[1,2,4]triazolo[1,5-a]pyridin-2-ylamino]-N-(2-dimethylamino-ethyl)-N-methyl-butyramide formate salt] | > 7.70
3 | Cc1c(-c2ccnn2-c2ccc(C#N)cc2)cn2nc(NC(=O)NCCC[N+](C)(C)C)nc2c1-c1cccc(C(F)(F)F)c1 [Example 38, (3-{3-[6-[2-(4-Cyano-phenyl)-2H-pyrazol-3-yl]-7-methyl-8-(3-trifluoromethyl-phenyl)-[1,2,4]triazolo[1,5-a]pyridin-2-yl]-ureido}-propyl)-trimethyl-ammonium formate] | > 7.70
4 | CC(=O)Nc1nc2c(-c3cccc(OC(F)(F)F)c3)c(C)c(-c3ccnn3-c3ccc(C#N)cc3)cn2n1 [Example 44, N-[6-[2-(4-Cyano-phenyl)-2H-pyrazol-3-yl]-7-methyl-8-(3-trifluoromethoxy-phenyl)-[1,2,4]triazolo[1,5-a]pyridin-2-yl]-acetamide] | 7.00 to 7.70
5 | Cc1c(-c2ccnn2-c2ccc(C#N)cc2)cn2nc(NC(=O)CCC[N+](C)(C)C)nc2c1-c1cccc(C(F)(F)F)c1 [Example 17, {3-[6-[2-(4-Cyano-phenyl)-2H-pyrazol-3-yl]-7-methyl-8-(3-trifluoromethyl-phenyl)-[1,2,4]triazolo[1,5-a]pyridin-2-ylcarbamoyl]-propyl}-trimethyl-ammonium bromide] | > 7.70
6 | Cc1c(-c2ccnn2-c2ccc(C#N)cc2)cn2nc(NC(=O)C[N+]3(C)CCN(C)CC3)nc2c1-c1cccc(C(F)(F)F)c1 [Example 25, 1-{[6-[2-(4-Cyano-phenyl)-2H-pyrazol-3-yl]-7-methyl-8-(3-trifluoromethyl-phenyl)-[1,2,4]triazolo[1,5-a]pyridin-2-ylcarbamoyl]-methyl}-1,4-dimethyl-piperazin-1-ium chloride] | 7.00 to 7.70
7 | Cc1c(-c2ccnn2-c2ccc(C#N)cc2)cn2nc(NC(=O)CN3CCS(=O)(=O)CC3)nc2c1-c1cccc(C(F)(F)F)c1 [Example 21, N-[6-[1-(4-Cyano-phenyl)-1H-pyrazol-5-yl]-7-methyl-8-(3-trifluoromethyl-phenyl)-[1,2,4]triazolo[1,5-a]pyridin-2-yl]-2-(1,1-dioxothiomorpholin-4-yl)-acetamide] | > 7.70
8 | Cc1c(-c2ccnn2-c2ccc(C#N)cc2)cn2nc(NCc3ccc(S(C)(=O)=O)cc3)nc2c1-c1cccc(C(F)(F)F)c1 [Example 23, 4-{5-[2-(4-Methanesulfonyl-benzylamino)-7-methyl-8-(3-trifluoromethyl-phenyl)-[1,2,4]triazolo[1,5-a]pyridin-6-yl]-pyrazol-1-yl}-benzonitrile] | > 7.70
9 | Cc1c(-c2ccnn2-c2ccc(C#N)cc2)cn2nc(NC(=O)CN3CCN(C)CC3)nc2c1-c1cccc(C(F)(F)F)c1 [Example 18, N-[6-[2-(4-Cyano-phenyl)-2H-pyrazol-3-yl]-7-methyl-8-(3-trifluoromethyl-phenyl)-[1,2,4]triazolo[1,5-a]pyridin-2-yl]-2-(4-methyl-piperazin-1-yl)-acetamide] | > 7.70
10 | Cc1c(-c2nc(N)nn2-c2ccc(C#N)cc2)cn2nc(N)nc2c1-c1cccc(C(F)(F)F)c1 [Example 61, 4-{3-Amino-5-[2-amino-7-methyl-8-(3-trifluoromethyl-phenyl)-[1,2,4]triazolo[1,5-a]pyridin-6-yl]-[1,2,4]triazol-1-yl}-benzonitrile] | > 7.70
11 | CC(=O)Nc1nc2c(-c3cccc(C(F)(F)F)c3)c(C)c(-c3ccnn3-c3ccc(C#N)cc3F)cn2n1 [Example 41, N-[6-[2-(4-Cyano-2-fluoro-phenyl)-2H-pyrazol-3-yl]-7-methyl-8-(3-trifluoromethyl-phenyl)-[1,2,4]triazolo[1,5-a]pyridin-2-yl]-acetamide] | > 7.70
12 | Cc1c(-c2ccnn2-c2ccc(C#N)cc2)cn2nc(NC(=O)NC3CCNCC3)nc2c1-c1cccc(C(F)(F)F)c1 [Example 50, 1-[6-[2-(4-Cyano-phenyl)-2H-pyrazol-3-yl]-7-methyl-8-(3-trifluoromethyl-phenyl)-[1,2,4]triazolo[1,5-a]pyridin-2-yl]-3-piperidin-4-yl-urea] | > 7.70

Continued, values first:

Row | pIC50 | Structure (SMILES)
13 | > 7.70 | Cc1c(-c2ccnn2-c2ccc(C#N)cc2)cn2nc(NCC[N+](C)(C)C)nc2c1-c1cccc(C(F)(F)F)c1 [Example 33, {3-[6-[2-(4-Cyano-phenyl)-2H-pyrazol-3-yl]-7-methyl-8-(3-trifluoromethyl-phenyl)-[1,2,4]triazolo[1,5-a]pyridin-2-ylamino]-ethyl}-trimethyl-ammonium benzenesulfonate]
14 | > 7.70 | Cc1c(-c2ccnn2-c2ccc(C#N)cc2)cn2nc(NC(=O)CCC(=O)O)nc2c1-c1cccc(C(F)(F)F)c1 [Example 55, N-[6-[2-(4-Cyano-phenyl)-2H-pyrazol-3-yl]-7-methyl-8-(3-trifluoromethyl-phenyl)-[1,2,4]triazolo[1,5-a]pyridin-2-yl]-succinamic acid]
15 | 6.30 to 7.00 | Cc1c(-c2ccnn2-c2ccc(C#N)cc2)cn2cc(NC(=O)C(F)(F)F)nc2c1-c1cccc(C(F)(F)F)c1 [Example 2]
16 | > 7.70 | Cc1c(-c2ccnn2-c2ccc(C#N)cc2)cn2nc(NCCCN(C)C)nc2c1-c1cccc(C(F)(F)F)c1 [Example 28, 4-{5-[2-(3-Dimethylamino-propylamino)-7-methyl-8-(3-trifluoromethyl-phenyl)-[1,2,4]triazolo[1,5-a]pyridin-6-yl]-pyrazol-1-yl}-benzonitrile]
17 | > 7.70 | Cc1c(-c2ccnn2-c2ccc(C#N)cc2)cn2nc(NC(=O)CCCN(C)C)nc2c1-c1cccc(C(F)(F)F)c1 [Example 16, N-[6-[2-(4-Cyano-phenyl)-2H-pyrazol-3-yl]-7-methyl-8-(3-trifluoromethyl-phenyl)-[1,2,4]triazolo[1,5-a]pyridin-2-yl]-4-dimethylamino-butyramide]
18 | 7.00 to 7.70 | Cc1c(-c2ccnn2-c2ccc(C#N)cc2)cn2nc(N)nc2c1-c1cccc(C(F)(F)F)c1 [Example 1, 4-{5-[2-Amino-7-methyl-8-(3-trifluoromethyl-phenyl)-[1,2,4]triazolo[1,5-a]pyridin-6-yl]-pyrazol-1-yl}-benzonitrile]
19 | > 7.70 | CCNC(=O)Nc1nc2c(-c3cccc(C(F)(F)F)c3)c(C)c(-c3ccnn3-c3ccc(C#N)cc3)cn2n1 [Example 52, 1-[6-[2-(4-Cyano-phenyl)-2H-pyrazol-3-yl]-7-methyl-8-(3-trifluoromethyl-phenyl)-[1,2,4]triazolo[1,5-a]pyridin-2-yl]-3-ethyl-urea]
20 | > 7.70 | Cc1c(-c2ccnn2-c2ccc(C#N)cc2)cn2nc(NCCCCO)nc2c1-c1cccc(C(F)(F)F)c1 [Example 54, 4-{5-[2-(4-Hydroxy-butylamino)-7-methyl-8-(3-trifluoromethyl-phenyl)-[1,2,4]triazolo[1,5-a]pyridin-6-yl]-pyrazol-1-yl}-benzonitrile]
21 | > 7.70 | Cc1c(-c2ccnn2-c2ccc(C#N)cc2)cn2nc(NCC(C)O)nc2c1-c1cccc(C(F)(F)F)c1 (stereo not shown) [Example 49, 4-{5-[2-(2-Hydroxy-propylamino)-7-methyl-8-(3-trifluoromethyl-phenyl)-[1,2,4]triazolo[1,5-a]pyridin-6-yl]-pyrazol-1-yl}-benzonitrile]
22 | > 7.70 | CNCCCC(=O)Nc1nc2c(-c3cccc(C(F)(F)F)c3)c(C)c(-c3ccnn3-c3ccc(C#N)cc3)cn2n1 [Example 56, N-[6-[2-(4-Cyano-phenyl)-2H-pyrazol-3-yl]-7-methyl-8-(3-trifluoromethyl-phenyl)-[1,2,4]triazolo[1,5-a]pyridin-2-yl]-4-methylamino-butyramide]
23 | > 7.70 | CC(=O)Nc1nc2c(-c3cccc(C(F)(F)F)c3)c(C)c(-c3ccnn3-c3ccc(C#N)cc3)cn2n1 [Example 26, N-[6-[2-(4-Cyano-phenyl)-2H-pyrazol-3-yl]-7-methyl-8-(3-trifluoromethyl-phenyl)-[1,2,4]triazolo[1,5-a]pyridin-2-yl]-acetamide]
24 | > 7.70 | Cc1c(-c2ccnn2-c2ccc(C#N)cc2)cn2c(=O)[nH]nc2c1-c1cccc(C(F)(F)F)c1 [Example 9, 4-{5-[7-Methyl-3-oxo-8-(3-trifluoromethyl-phenyl)-2,3-dihydro-[1,2,4]triazolo[4,3-a]pyridin-6-yl]-pyrazol-1-yl}-benzonitrile]
25 | 6.30 to 7.00 | COc1nc2c(-c3cccc(C(F)(F)F)c3)c(C)c(-c3ccnn3-c3ccc(C#N)cc3)cn2n1 [Example 31, 4-{5-[2-Methoxy-7-methyl-8-(3-trifluoromethyl-phenyl)-[1,2,4]triazolo[1,5-a]pyridin-6-yl]-pyrazol-1-yl}-benzonitrile]
